Reference: patent US20260315431A1, “NANOMATERIAL ENCAPSULATED BIOFILM INHIBITORS FOR DENTAL CARIES TREATMENT” (THE UAB RESEARCH FOUNDATION, priority 2023, published 2026)
Read-outs that look alike come from different tables or passages of the source.

System: S. mutans Gtfs
Experiment: Gtf inhibition determined by glucan quantification
Format: biochemical, Streptococcus mutans
Conditions: role: inhibitor
Text: The interspecies co-adherence between S. mutans and other microorganisms in the oral cavity is critical for biofilm formation and cariogenicity. Though the mechanisms of such adhesions and co-aggregations are not fully elucidated, it is believed that the extracellular polysaccharide (EPS) matrix of S. mutans has an important role in this process^49, 50. It is reported that glucans synthesized by Gtfs when incorporated into the tooth pellicle to provide enhanced binding sites for other microorganisms to form stable and persistent microcolonies, which provides mechanical stability to the EPS matrix^50, 51. Therefore, Gtf inhibition assays were performed to assess the ability of HA5 to inhibit the Gtfs and glucan production using a reported procedure and IC50 value was calculated^52.
HA5 is a polyhydroxy compound that contains a Michael acceptor functionality which raises concerns about non-specific and covalent binding.
Gtf inhibition determined by glucan quantification assays. Overnight cultures of S. mutans UA159 were centrifuged (6500 rpm, 4° C., 10 min) to remove cells. Supernatant was mixed with ethanol (1:1) and incubated at −80° C. for 1 h. The precipitated Gtfs were palleted using centrifugation and resuspended in chemically defined media (CDM) 10 μL of Gtfs suspended in CDM were assayed on Ibidi slides with varying concentrations of inhibitor, 1% sucrose, 1% DMSO and 1 μM Cascade blue dye in CDM. The slides were then incubated at 37° C. with 5% CO2 for 16 h after which, the wells of Ibidi slides were gently rinsed with 1×PBS and treated with 1×PBS for fluorescence microscopy imaging. The images obtained were processed in ImageJ to quantify glucans and graphed in GraphPad Prism.
Gtf inhibition assays were performed to assess the ability of HA6 to inhibit the Gtfs and glucan production using a reported procedure and IC50 value was calculated^[44, 45] Overnight cultures of S. mutans UA159 were centrifuged (6500 rpm, 4° C., 10 min) to remove the cells. Supernatant was mixed with ethanol (1:1) and incubated at −80° C. for 1 h. The precipitated Gtfs were palleted using centrifugation and resuspended in CDM (1 mL). 10 μL of Gtfs suspension in CDM was assayed on Ibidi slides with varying concentrations of PEHA5 or HA6, 1% sucrose, 1% DMSO and 1 μM Cascade blue dextran conjugated dye in CDM. The slides were then incubated at 37° C. with 5% CO2 for 16 h after which, the wells of Ibidi slides were gently rinsed with 1×PBS and imaged using fluorescence microscopy. The images obtained were processed in ImageJ to quantify glucans and graphed in GraphPad Prism 10.0.2.

O=C1/C(=C/c2cc(O)c(O)cc2O)Oc2ccccc21 [HA5, 2-[(2′,4′,5′-Trihydroxyphenyl)methylidene]-2,3-dihydro-1-benzofuran-3-one]
IC50 (1% sucrose, 1% DMSO, no BME or Triton-X-100, read-out: Gtf inhibition (glucan production) IC50): 10.6 µM | IC50 (no BME, unit M, read-out: Gtf inhibition (glucan production) IC50): 10.6 µM | IC50 (with beta-mercaptoethanol 1 mM, read-out: Gtf inhibition IC50 in the presence of BME): 7.84 µM | IC50 (with detergent Triton-X-100, read-out: Gtf inhibition IC50 in the presence of Triton-X-100): 5.16 µM
